Read-outs that look alike come from different tables or passages of the source. One block for each compound: values may come before it.
Assays:
[1] = system: H146, H1417 and H1963 cancer cell lines; assay type: cell-based, Human
Bcl-xL [2] = biological target: T1, Bcl-xL (Homo sapiens, UniProt Q07817); settings: read-out: Ki, binding to Bcl-xL; previously reported; cited from earlier work
[3] = system: H146 xenograft tumor tissues; assay: In vivo pharmacodynamic; parameters: species or system SCID mice; settings: at its maximum tolerated dose (data not shown)
Bcl-xL [4] = biological target: T1, Bcl-xL; assay: Fluorescence polarization-based; assay type: binding
Bcl-2 [5] = biological target: T2, Bcl-2 (Homo sapiens, UniProt P10415); assay: Fluorescence polarization-based; assay type: binding; settings: for times less potent than 12 in binding to Bcl-2: compared with compound 12
T2 sequence (P10415 whole entry): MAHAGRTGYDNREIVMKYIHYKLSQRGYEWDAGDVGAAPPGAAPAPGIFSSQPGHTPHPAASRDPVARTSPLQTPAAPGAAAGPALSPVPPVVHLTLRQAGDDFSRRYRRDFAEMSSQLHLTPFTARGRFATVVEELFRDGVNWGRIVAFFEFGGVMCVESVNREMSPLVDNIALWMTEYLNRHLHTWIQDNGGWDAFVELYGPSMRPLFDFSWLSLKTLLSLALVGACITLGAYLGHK

H146 cell line [6] = assay: Cell death induction by trypan blue assay; assay type: cell-based, Human; settings: 24 h
H146 cell line [7] = assay: Western blotting of caspase-3 and PARP cleavage in cells; assay type: cell-based, Human; settings: 24 h
[8] = system: H1417 small-cell lung cancer cell line; assay: Cell growth inhibition, H1417; assay type: cell-based, Human
[9] = system: H146 small-cell lung cancer cell line; assay: Cell growth inhibition, H146; assay type: cell-based, Human
[10] = system: H1963 small-cell lung cancer cell line; assay: Cell growth inhibition, H1963; assay type: cell-based; settings: read-out: Cell Growth Inhibition (IC50 ± SD) H1963
SCID mice = assay: Toxicity in SCID mice; assay type: in vivo; settings: 25 mg/kg, daily intravenous dosing, five days a week for 2 weeks
H146 cancer cells = assay: Release of cytochrome C from mitochondria in cells; assay type: cell-based, Human; settings: for Release of cytochrome C and cleavage of PARP at 30 nM: 2 h, H146 cells; for Release of cytochrome C from mitochondria in H146 cells: treatment as short as 2 h
H146 xenograft model = assay: In vivo efficacy study, H146 xenograft model; settings: 25 mg/kg daily i.v. 5 days a week for 2 weeks
Bcl-2 [11] = biological target: T2, Bcl-2; assay: Cell-free mitochondrial functional assay, Bcl-2; settings: compared with compound 1

T1 sequence (Q07817 whole entry): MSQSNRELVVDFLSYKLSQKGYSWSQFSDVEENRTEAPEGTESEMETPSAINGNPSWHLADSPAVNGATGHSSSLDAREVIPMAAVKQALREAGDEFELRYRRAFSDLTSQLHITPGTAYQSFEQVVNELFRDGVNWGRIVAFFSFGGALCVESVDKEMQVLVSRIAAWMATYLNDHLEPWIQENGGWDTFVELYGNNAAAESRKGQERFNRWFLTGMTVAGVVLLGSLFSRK

Compound: CNC(=O)c1c(-c2cccc(N3CCN(c4ccc(NS(=O)(=O)c5ccc(N[C@H](CCN(C)C)CSc6ccccc6)c([N+](=O)[O-])c5)cc4)CC3)c2)c(-c2ccc(Cl)cc2)n(C)c1C [Compound 11, (R)-5-(4-Chlorophenyl)-4-(3-(4-(4-(4-((4-(dimethylamino)-1-(phenylthio)butan-2-yl)amino)-3-nitrophenylsulfonamido)phenyl)piperazin-1-yl)phenyl)-N,1,2-trimethyl-1H-pyrrole-3-carboxamide]
- times more potent than compound 10 in cell growth inhibition [1]: 2–4 times

Compound: CCc1c(-c2ccc(Cl)cc2)c(-c2cccc(N3CCN(c4ccc(NS(=O)(=O)c5ccc(N[C@H](CCN(C)C)CSc6ccccc6)c([N+](=O)[O-])c5)cc4)CC3)c2)c(C(=O)O)n1C [Compound 6]
- Ki (Bcl-xL [2]): < 0.001 µM
- Apoptosis induction in H146 xenograft tumor tissues [3]: fails to induce robust apoptosis
- Ki (Bcl-xL [4]; read-out: Binding Affinities Bcl-xL Ki ± SD, FP competitive binding): < 0.001 µM

- times less potent than 12 in binding to Bcl-2 (Bcl-2 [5]): 10 times
Compound: Cc1c(C(=O)O)c(-c2cccc(N3CCN(c4ccc(NS(=O)(=O)c5ccc(N[C@H](CCN(C)C)CSc6ccccc6)c([N+](=O)[O-])c5)cc4)CC3)c2)c(-c2ccc(Cl)cc2)n1C1CC1 [Compound 16, (R)-5-(4-Chlorophenyl)-1-cyclopropyl-4-(3-(4-(4-(4-((4-(dimethylamino)-1-(phenylthio)-butan-2-yl)amino)-3-nitrophenylsulfonamido)phenyl)piperazin-1-yl)phenyl)-2-methyl-1H-pyrrole-3-carboxylic acid]

- times more potent than 7 in binding to Bcl-2 (Bcl-2 [5]; Ki compared with compound 7): 2 times
- times more potent than 7 in binding to Bcl-xL (Bcl-xL [4]; Ki compared with compound 7): 2 times
Compound: Cc1c(C(=O)NCCCN2CCN(C)CC2)c(-c2ccccc2)c(-c2ccc(Cl)cc2)n1C [Compound 8, 5-(4-Chlorophenyl)-1,2-dimethyl-N-(3-(4-methylpiperazin-1-yl)propyl)-4-phenyl-1H-pyrrole-3-carboxamide]
- Cellular activity (cell growth inhibition) [1]: minimal cellular activity

Compound: CN(C)CC[C@H](CSc1ccccc1)Nc1ccc(S(=O)(=O)NC(=O)c2ccc(N3CCN(Cc4ccccc4-c4ccc(Cl)cc4)CC3)cc2)cc1[N+](=O)[O-] [Compound 1, reference compound]
- Cell death induction in H146 (H146 cell line [6]): effectively induce cell death in H146 in a dose-dependent manner
- Cleavage of caspase-3 and PARP in H146 (H146 cell line [7]): induce cleavage of caspase-3 and poly (ADP- ribose) polymerase (PARP) in a dose-dependent manner

Compound: Cc1c(C(=O)O)c(-c2cccc(N3CCN(c4ccc(NS(=O)(=O)c5ccc(N[C@H](CCN(C)C)CSc6ccccc6)c([N+](=O)[O-])c5)cc4)CC3)c2)c(-c2ccc(Cl)cc2)n1C [Compound 12, (R)-5-(4-Chlorophenyl)-4-(3-(4-(4-(4-((4-(dimethylamino)-1-(phenylthio)butan-2-yl)amino)-3-nitrophenylsulfonamido)phenyl)piperazin-1-yl)phenyl)-1,2-dimethyl-1H-pyrrole-3-carboxylic acid]
- times more potent than compound 10 in cell growth inhibition [1]: 2–4 times
- Cell death induction in H146 (H146 cell line [6]): effectively induce cell death in H146 in a dose-dependent manner
- Cleavage of caspase-3 and PARP in H146 (H146 cell line [7]): induce cleavage of caspase-3 and poly (ADP- ribose) polymerase (PARP) in a dose-dependent manner

Compound: (R)-5-(4-Chlorophenyl)-4-(3-(4-(4-(((4-((4-(dimethylamino)-1-(phenylthio)butan-2-yl)amino)phenyl)sulfonyl)carbamoyl)phenyl)piperazin-1-yl)phenyl)-1,2-dimethyl-N-(3-(4-methylpiperazin-1-yl)propyl)-1H-pyrrole-3-carboxamide [Compound 9]
- IC50 ([8]; read-out: Cell Growth Inhibition (IC50 ± SD) H1417, H1417): > 10 µM
- IC50 ([9]; read-out: Cell Growth Inhibition (IC50 ± SD) H146, H146): > 10 µM
- IC50 [10]: > 10 µM

Compound: Cc1c(C(=O)O)c(-c2cccc(N3CCN(c4ccc(NS(=O)(=O)c5ccc(N[C@H](CCN(C)C)CSc6ccccc6)c([N+](=O)[O-])c5)cc4)CC3)c2)c(-c2ccc(Cl)cc2)n1C(C)C [Compound 15, (R)-5-(4-Chlorophenyl)-4-(3-(4-(4-(4-((4-(dimethylamino)-1-(phenylthio)butan-2-yl)amino)-3-nitrophenylsulfonamido)phenyl)piperazin-1-yl)phenyl)-1-isopropyl-2-methyl-1H-pyrrole-3-carboxylic acid]
- Tolerability in SCID mice (SCID mice): toxic to the animals which had severe weight loss
- times more potent than compound 1 in cell growth inhibition ([1]; direct comparison): 10–100 times
- Cell death induction in H146 at 10 nM (H146 cell line [6]): induce robust cell death
- Cell death induction in H146 (H146 cell line [6]): effectively induce cell death in H146 in a dose-dependent manner
- Release of cytochrome C and cleavage of PARP at 30 nM (H146 cancer cells): robust
- Release of cytochrome C from mitochondria in H146 cells (H146 cancer cells): induces a release of cytochrome C in a dose-dependent manner
- Cleavage of caspase-3 and PARP in H146 (H146 cell line [7]): induce cleavage of caspase-3 and poly (ADP- ribose) polymerase (PARP) in a dose-dependent manner

- times less potent than 12 in binding to Bcl-2 (Bcl-2 [5]): 100 times
Compound: Cc1cc(-c2cccc(N3CCN(c4ccc(NS(=O)(=O)c5ccc(N[C@H](CCN(C)C)CSc6ccccc6)c([N+](=O)[O-])c5)cc4)CC3)c2)c(-c2ccc(Cl)cc2)n1C [Compound 13, (R)-N-(4-(4-(3-(2-(4-Chlorophenyl)-1,5-dimethyl-1H-pyrrol-3-yl)phenyl)piperazin-1-yl)phenyl)-4-((4-(dimethylamino)-1-(phenylthio)butan-2-yl)amino)-3-nitrobenzenesulfonamide]

Compound: CCn1c(C)c(C(=O)O)c(-c2cccc(N3CCN(c4ccc(NS(=O)(=O)c5ccc(N[C@H](CCN(C)C)CSc6ccccc6)c([N+](=O)[O-])c5)cc4)CC3)c2)c1-c1ccc(Cl)cc1 [Compound 14, (R)-5-(4-Chlorophenyl)-4-(3-(4-(4-(4-((4-(dimethylamino)-1-(phenylthio)butan-2-yl)amino)-3-nitrophenylsulfonamido)phenyl)piperazin-1-yl)phenyl)-1-ethyl-2-methyl-1H-pyrrole-3-carboxylic acid]
- Tolerability in SCID mice (SCID mice): well tolerated
- Cell death induction in H146 at 10 nM (H146 cell line [6]): induce robust cell death
- Cell death induction in H146 (H146 cell line [6]): effectively induce cell death in H146 in a dose-dependent manner
- Release of cytochrome C and cleavage of PARP at 30 nM (H146 cancer cells): robust
- Release of cytochrome C from mitochondria in H146 cells (H146 cancer cells): induces a release of cytochrome C in a dose-dependent manner
- Cleavage of caspase-3 and PARP in H146 (H146 cell line [7]): induce cleavage of caspase-3 and poly (ADP- ribose) polymerase (PARP) in a dose-dependent manner
- Inhibition of tumor growth (H146 xenograft model): very effective in inhibition of tumor growth
- Maximum weight loss during the treatment (H146 xenograft model): < 10%
- Other signs of toxicity (H146 xenograft model): no other signs of toxicity observed
- Tumor regression during the treatment phase (H146 xenograft model): capable of achieving tumor regression

- IC50 ([8]; Homo sapiens, NCI-H1417, read-out: Cell Growth Inhibition (IC50 ± SD) H1417): > 10 µM
- IC50 ([9]; Homo sapiens, NCI-H146, read-out: Cell Growth Inhibition (IC50 ± SD) H146): > 10 µM
Compound: CN1CCN(CCCNC(=O)c2c(-c3ccccc3)c(-c3ccc(Cl)cc3)cn2CC[C@H](O)CO)CC1 [Compound 7, reference compound]

- times less potent than 1 in the Bcl-2 functional assay (Bcl-2 [11]): 3 times
Compound: Cc1c(C(=O)NCCCN2CCN(C)CC2)c(-c2cccc(N3CCN(c4ccc(NS(=O)(=O)c5ccc(N[C@H](CCN(C)C)CSc6ccccc6)c([N+](=O)[O-])c5)cc4)CC3)c2)c(-c2ccc(Cl)cc2)n1C [Compound 10, (R)-5-(4-Chlorophenyl)-4-(3-(4-(4-(4-((4-(dimethylamino)-1-(phenylthio)butan-2-yl)amino)-3-nitrophenylsulfonamido)phenyl)piperazin-1-yl)phenyl)-1,2-dimethyl-N-(3-(4-methylpiperazin-1-yl)propyl)-1H-pyrrole-3-carboxamide]

— publication PMC3417242 (Journal of medicinal chemistry, 2012)
